In US10752626B2, “Iso-citrate dehydrogenase (IDH) inhibitor” (SHANGHAI METON PHARMACEUTICAL CO., LTD, priority 2016, dated 2020):

What was measured:
IDH1 R132H = IDH1 R132H (Homo sapiens (Human), UniProt O75874, R132H); experiment: Biochemical assay for inhibition of mutant IDH1 R132H; details: tested in triplet
Excerpt: (§1) The present disclosure provides a biochemical assay method for detecting the IDH inhibition and selectivity of the compounds by detecting IDH enzyme activity directly.
(§2) Wild-type IDH enzyme could convert NADP^+ to NADPH when it catalyzes the α-KG producing reaction. Mutant IDH enzyme could convert NADPH to NADP^+ when it catalyzes the D-2-HG producing reaction. So the activity of wild-type and mutant IDH1/2 could be measured by monitoring NADPH level change: in the reaction catalyzed by wild-type IDH1/2, the newly generated NADPH is utilized instantly by coupled diaphorase-resazurin reaction to generate resorufin which is fluorescent (at Excitation 544 nm, Emission 590 nm) and thus NADPH is monitored indirectly; while in the reaction catalyzed by mutant IDH1/2, NADPH is directly monitored as it is fluorescent (at Excitation 340 nm, Emission 460 nm). By monitoring the change of NADPH level in the reaction, the enzyme activity could be determined rapidly and efficiently, IC50 of a compound could also be assayed.
(§3) The test compounds were prepared into 50 mM stock solutions in DMSO and stored at −20° C. Each test compound stock was further diluted to obtain a 100× stock solution at a concentration of 200 μM, 100 μM, 50 μM, 25 μM, 12.5 jμM, 6.25 μM and 3.125 μM, respectively, for the final use on the day of test.
(§4) Inhibition of Mutant IDHJ (R132H or R132C):
(§5) Solution A was prepared by combining 1 M Tris-HCl pH7.5 (300 μL), 5 M NaCl (450 μL), 1 M MgCl2 (150 μL), 1 M DTT (15 μL), 20 mg/mL BSA (37.5 μL), 20 mM NADPH (20 μL), and 0.5 mM α-KG (40 μL), followed by adding deionized water to a final volume of 15 mL.
(§6) Reaction buffer was prepared by combining 1 M Tris-HCl pH 7.5 (200 μL), 5 M NaCl (300 μL), 1 M MgCl2 (100 μL), 1 M DTT (10 μL) and 20 mg/mL BSA (25 μL), followed by adding deionized water to a final volume of 10 mL.
(§7) Solution B was prepared by combining the reaction buffer (5 mL) and […] IDH1-R132H (5.21 μL) or 107 μM IDH1-R132C (4.67 μL).
(§8) 148 μL Solution A was added into each sample well of a 96-well plate P1, and then 2 μL of the test compound solution at each concentration and 2 μL of DMSO (negative control/blank) were added into individual sample well respectively. 50 μL of Solution B was added into each of the sample wells having test compounds and one sample well having DMSO only, and 50 μL of reaction buffer was added into another sample well having DMSO only, respectively. P1 was put into BioTek Synergy H4 Microplate reader (BioTek Instruments Inc., Winooski, U.S.), and the program was set as follows: 37° C., shake plate 5 seconds, run kinetic mode, total detection time 20 min, detection intervals 40 seconds, detection mode fluorescence (at Excitation 340 nm, Emission 460 nm). The data were exported, the relative enzyme activity and the half-maximal inhibitory concentration (IC50) for the test compound were calculated. Relative enzyme activity was calculated as the absolute value of the slope of the Emission 460 reads of each well plotted against time (which represents the conversion rate of ca-KG to 2-HG through IDH1 modulated utilization of NADPH). The Dose-response curve was drawn and the IC50 was calculated via fitting. The IDH inhibition and selectivity of each test compound can be evaluated according to the effect of the compounds on the IDH enzyme activity.
(§9) The IDH inhibition activity of the compounds were assessed according to Test 5 of the Biological evaluation section. The test for mutant IDH1 R132H/R132C inhibition of each compound was carried out in triplet. For IDH1 R132H, the enzyme activity of exemplary Compounds 16, 21, 22, 23, 24 and 31 is plotted as a function of logarithm of the concentration of the compound in FIGS. 8A-8C, 9A-9C, 10A-10C, 11A-11C, 12A-12C and 13A-13C, respectively. […]

IDH1 R132C [1] = molecular target: T1, IDH1 R132C (Homo sapiens (Human), UniProt O75874, R132C); experiment: Biochemical assay for inhibition of mutant IDH1 R132C; details: tested in triplet
Excerpt: as §1, §2, §3, §4, §5, §6, §7, §8, §9
Target sequence in this assay (O75874 whole entry R132C): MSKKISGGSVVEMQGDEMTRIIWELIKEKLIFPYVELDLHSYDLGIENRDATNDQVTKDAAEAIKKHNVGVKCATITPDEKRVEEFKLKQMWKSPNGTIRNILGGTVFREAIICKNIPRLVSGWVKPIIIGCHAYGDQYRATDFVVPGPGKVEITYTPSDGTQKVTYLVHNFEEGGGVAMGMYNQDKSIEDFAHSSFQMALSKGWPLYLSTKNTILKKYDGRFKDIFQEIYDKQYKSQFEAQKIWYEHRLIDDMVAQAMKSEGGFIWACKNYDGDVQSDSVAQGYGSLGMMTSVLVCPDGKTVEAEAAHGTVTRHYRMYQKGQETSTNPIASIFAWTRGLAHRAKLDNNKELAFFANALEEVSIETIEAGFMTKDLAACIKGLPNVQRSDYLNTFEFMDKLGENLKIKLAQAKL

IDH1 R132C [2] = molecular target: T1, IDH1 R132C; experiment: Improved cell-based assay: D-2-HG in HT1080 cells over-expressing D-2-HG dehydrogenase; details: 12 h
Excerpt: The present disclosure also provides a cell based method for assaying IDH inhibition and selectivity of the compounds in human fibrosacoma cell line HT1080 and cholangiocarcinoma cell line HCCC 9810, which harbor endogenous heterozygous IDH1 R132C and R132H mutation respectively and accumulate D-2-HG Tumor derived IDH mutant lost its normal activity of producing α-KG and gained a new activity of producing D-2-HG D-2-HG is a metabolite specifically elevated in IDH mutated tumor samples.
By treating HT1080 and HCCC 9810 cells with an effective IDH inhibitor, the synthesis of D-2-HG is blocked, and D-2-HG concentration is decreased by the oxidation reaction catalyzed by D-2-HG dehydrogenase.
To perform a cell based IDH inhibitor assay, HT1080 and HCCC 9810 cells (or other cell lines harboring different IDH mutations) are cultured in DMEM supplemented with 10% FBS. The cells are treated with compounds of present disclosure at various different concentration. At various time points (between 4-24 hours) after the treatment, cell culture supernatants were removed and cells were washed with PBS for one or two times. Cell metabolites are extracted by adding 80% methanol (pre-chilled under −80° C.) in the cells, extract at 4° C. temperature for 60 min, centrifuged to remove any insoluble component. Metabolites (clear supernatant from the previous step) are lyophilized and reconstituted in pyridine containing 20 mg/ml O-methoxyamineHCl and are incubated at 70° C. for 40 minutes. After cooling down to room temperature, MTBSTFA (N-tert-Butyldimethylsilyl-N-methyltrifluoroacetamide, Sigma Aldrich) is added at a volume ratio of 4:7 (e.g., 20 μL MTBSTFA to 35 μL 20 mg/ml O-methoxyamineHCl solution) and derivation is performed at 70° C. for 30 minutes. The derived metabolites including D-2-HG are analyzed by Agilent 7890A-5750 GC/MS system. […] of the derived metabolite is injected into Agilent 7890A-5750 for D-2-HG concentration analysis. GC oven temperature is programmed from 140° C. to 260° C. at 10° C./min, from 260° C. to 310° C. at 8° C./min and hold at 310° C. for 5 min. The flow rate of carrier gas is 1 ml/min. The mass spectrometer is operated in the electron impact (EI) mode at 70 eV D-2-HG is normalized to endogenous glutamate.
The activity of IDHs in the presence of each compounds at different concentrations can be represented by relative D-2-HG concentration to negative control samples, and the IC50 value, the inhibition and selectivity for each compound can be evaluated.
The present disclosure also provides an improved cell-based assay for IDH inhibition and selectivity of the compounds, which involves stably over-expressing D-2-HG dehydrogenase in HT1080 and HCCC 9810 cells.
According to previous report, over expression of D-2-HG dehydrogenase decreases the half-life of D-2-HG in HT1080 cells (FIGS. 2A and 2B) [“D-2-hydroxyglutarate is essential for maintaining oncogenic property of mutant IDH-containing cancer cells but dispensable for cell growth”, Ma, S., et al., Oncotarget, (2015)], making the cells more sensitive to D-2-HG synthesis blockage by mutant IDH1 inhibitors. It will greatly increase the sensitivity and accurateness of this cell based assay. In the improved cell-based assay, all other steps are performed as disclosed in Test 6.
The D-2-HG inhibition activity of compounds was also assessed in the improved cell-based assay according to the method disclosed in Test 7 of the Biological evaluation section. HT1080 cells over-expressing D-2-HG dehydrogenase were cultured in 35 mm plate and treated with each of Compounds 1-37 at a concentration of 0.5 μM, 1 μM, 2.5 μM and 5 μM for 12 h, respectively, and the D-2-HG concentration was analysed. The inhibition ratio of D-2-HG in HT1080 cell by the exemplary Compounds 16, 21-24 and 31 at different concentrations were shown in Table 10.
Target sequence in this assay (O75874 2-414 R132C): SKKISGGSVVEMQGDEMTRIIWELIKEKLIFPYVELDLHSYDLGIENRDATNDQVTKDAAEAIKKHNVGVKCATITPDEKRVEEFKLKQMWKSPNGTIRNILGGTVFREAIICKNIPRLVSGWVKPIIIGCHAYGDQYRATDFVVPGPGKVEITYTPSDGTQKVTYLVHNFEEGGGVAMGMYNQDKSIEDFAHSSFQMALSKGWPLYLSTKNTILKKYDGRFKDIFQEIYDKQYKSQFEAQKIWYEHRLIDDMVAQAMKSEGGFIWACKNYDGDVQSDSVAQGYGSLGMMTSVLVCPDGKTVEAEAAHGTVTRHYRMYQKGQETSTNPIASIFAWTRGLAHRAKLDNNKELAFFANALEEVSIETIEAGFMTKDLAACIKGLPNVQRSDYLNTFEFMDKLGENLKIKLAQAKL

Chain of IDH1 R132H (O75874 whole entry R132H): as the sequence (O75874 whole entry R132C) above, with C132H counted along it

CCN1Cc2c(ccnc2N[C@@H](C)c2ccc(Oc3ccccc3F)cc2)C1=O [Compound 22, (S)-2-ethyl-4-((1-(4-(2-fluorophenoxy)phenyl)ethyl)amino)-2,3-dihydro-1H-pyrrolo[3,4-c]pyridin-1-one]
IC50 (IDH1 R132H): < 1000 nM | IC50 (IDH1 R132C [1]): < 1500 nM | Inhibition ratio of D-2-HG in HT1080 cell (IDH1 R132C [2]; 0.5 μM): 36.3% | Inhibition ratio of D-2-HG in HT1080 cell (IDH1 R132C [2]; 1 μM): 53.3% | Inhibition ratio of D-2-HG in HT1080 cell (IDH1 R132C [2]; 2.5 μM): 72.3% | Inhibition ratio of D-2-HG in HT1080 cell (IDH1 R132C [2]; 5 μM): 87.8%

CCN1Cc2c(ccnc2N[C@@H](C)c2ccc(Oc3ccc(C)cc3)c(F)c2)C1=O [Compound 24, (S)-2-ethyl-4-((1-(3-fluoro-4-(p-tolyloxy)phenyl)ethyl)amino)-2,3-dihydro-1H-pyrrolo[3,4-c]pyridin-1-one]
IC50 (IDH1 R132H): < 1000 nM | IC50 (IDH1 R132C [1]): < 1500 nM | Inhibition ratio of D-2-HG in HT1080 cell (IDH1 R132C [2]; 0.5 μM): 45.5% | Inhibition ratio of D-2-HG in HT1080 cell (IDH1 R132C [2]; 1 μM): 54.6% | Inhibition ratio of D-2-HG in HT1080 cell (IDH1 R132C [2]; 2.5 μM): 72.1% | Inhibition ratio of D-2-HG in HT1080 cell (IDH1 R132C [2]; 5 μM): 92.1%

CCN1Cc2c(ccnc2N[C@@H](C)c2ccc(Oc3cccc(F)c3)cc2)C1=O [Compound 21, (S)-2-ethyl-4-((1-(4-(3-fluorophenoxy)phenyl)ethyl)amino)-2,3-dihydro-1H-pyrrolo[3,4-c]pyridin-1-one]
IC50 (IDH1 R132H): < 1000 nM | IC50 (IDH1 R132C [1]): < 1500 nM | Inhibition ratio of D-2-HG in HT1080 cell (IDH1 R132C [2]; 0.5 μM): 20.2% | Inhibition ratio of D-2-HG in HT1080 cell (IDH1 R132C [2]; 1 μM): 18.7% | Inhibition ratio of D-2-HG in HT1080 cell (IDH1 R132C [2]; 2.5 μM): 43.1% | Inhibition ratio of D-2-HG in HT1080 cell (IDH1 R132C [2]; 5 μM): 76.1%

Cc1ccc(Oc2ccc([C@H](C)Nc3nccc4c3CN(C(C)C)C4=O)cc2)cc1 [Compound 31, (S)-2-isopropyl-4-((1-(4-(p-tolyloxy)phenyl)ethyl)amino)-2,3-dihydro-1H-pyrrolo[3,4-c]pyridin-1-one]
IC50 (IDH1 R132H): < 1000 nM | IC50 (IDH1 R132C [1]): < 1500 nM | Inhibition ratio of D-2-HG in HT1080 cell (IDH1 R132C [2]; 0.5 μM): 36.9% | Inhibition ratio of D-2-HG in HT1080 cell (IDH1 R132C [2]; 1 μM): 57.8% | Inhibition ratio of D-2-HG in HT1080 cell (IDH1 R132C [2]; 2.5 μM): 68.7% | Inhibition ratio of D-2-HG in HT1080 cell (IDH1 R132C [2]; 5 μM): 89.1%
